Columns and labels:
Assay in all cases: Test E greenhouse herbicide test, pre- and postemergence
Type in all cases: in vivo
[1] = tested on: arrowleaf sida (Sida rhombifolia)
Description: (§1) Seeds of plant species selected from corn (Zea mays), soybean (Glycine max), velvetleaf (Abutilon theophrasti), lambsquarters (Chenopodium album), wild poinsettia (Euphorbia heterophylla), pigweed, palmer (palmer pigweed, Amaranthus palmeri), waterhemp (common waterhemp, Amaranthus rudis), surinam grass (Brachiaria decumbens), crabgrass, large (large crabgrass, Digitaria sanguinalis), crabgrass, Brazilian (Brazilian crabgrass, Digitaria horizontalis), panicum, fall (fall panicum, Panicum dichotomiflorum), foxtail, giant (giant foxtail, Setaria faberii), foxtail, green (green foxtail, Setaria viridis), goosegrass (Eleusine indica), johnsongrass (Sorghum halepense), ragweed (common ragweed, Ambrosia elatior), barnyardgrass (Echinochloa crus-galli), sandbur (southem sandbur, Cenchrus echinatus), arrowleaf sida (Sida rhombifolia), Italian ryegrass (Lolium multiflorum), dayflower (Virginia (VA) dayflower, Commelina virginica), field bindweed (Convolvulus arvensis), momingglory (Ipomoea coccinea), nightshade (eastern black nightshade, Solanum ptycanthum), kochia (Kochia scoparia), nutsedge, yellow (yellow nutsedge, Cyperus esculentus), horseweed (Conyza canadensis), and beggarticks (hairy beggarticks, Bidens pilosa), were planted into a silt loam soil and treated preemergence with test chemicals formulated in a non-phytotoxic solvent mixture which included a surfactant.
(§2) At the same time, plants from these crop and weed species and also waterhemp_RES1, (ALS & Triazine resistant common waterhemp, Amaranthus rudis), and waterhemp_RES2, (ALS & HPPD resistant common waterhemp, Amaranthus rudis) were planted in pots containing Redi-Earth® planting medium (Scotts Company, 14111 Scottslawn Road, Marysville, Ohio 43041) comprising spaghnum peat moss, vermiculite, wetting agent and starter nutrients were treated with postemergence applications of test chemicals formulated in the same manner. Plants ranged in height from 2 to 18 cm for postemergence treatments (1- to 4-leaf stage). Treated plants and controls were maintained in a greenhouse for 14 to 21 d, after which time all species were compared to controls and visually evaluated. Plant response ratings, summarized in Table E, are based on a scale of 0 to 100 where 0 is no effect and 100 is complete control. A dash (-) response means no test result.

[2] = tested on: foxtail, green (green foxtail, Setaria viridis); conditions: Preemergence
Description: as §1, §2

corn (Zea mays) = tested on: corn (Zea mays)
Description: as §1, §2

[3] = tested on: momingglory (Ipomoea coccinea); conditions: Preemergence
Description: as §1, §2

[4] = tested on: dayflower (Virginia (VA) dayflower, Commelina virginica)
Description: as §1, §2

[5] = tested on: crabgrass, Brazilian (Brazilian crabgrass, Digitaria horizontalis)
Description: as §1, §2

[6] = tested on: panicum, fall (fall panicum, Panicum dichotomiflorum)
Description: as §1, §2

[7] = tested on: barnyardgrass (Echinochloa crus-galli)
Description: as §1, §2

[8] = tested on: goosegrass (Eleusine indica); conditions: Preemergence
Description: as §1, §2

soybean (Glycine max) = tested on: soybean (Glycine max)
Description: as §1, §2

[9] = tested on: nutsedge, yellow (yellow nutsedge, Cyperus esculentus); conditions: Preemergence
Description: as §1, §2

[10] = tested on: ragweed (common ragweed, Ambrosia elatior)
Description: as §1, §2

[11] = tested on: horseweed (Conyza canadensis)
Description: as §1, §2

[12] = tested on: Italian ryegrass (Lolium multiflorum)
Description: as §1, §2

[13] = tested on: sandbur (southem sandbur, Cenchrus echinatus)
Description: as §1, §2

[14] = 62 g ai/ha, Postemergence, scale 0 to 100 (0 no effect, 100 complete control)
[15] = 62 g ai/ha, Preemergence, scale 0 to 100 (0 no effect, 100 complete control)
[16] = 125 g ai/ha, Postemergence, scale 0 to 100 (0 no effect, 100 complete control)
[17] = 125 g ai/ha, Preemergence, scale 0 to 100 (0 no effect, 100 complete control)
[18] = 250 g ai/ha, Postemergence, scale 0 to 100 (0 no effect, 100 complete control)
[19] = Postemergence, 31 g ai/ha, visual, scale 0 no effect to 100 complete control
[20] = Preemergence, 31 g ai/ha, scale 0 to 100, 0 no effect, 100 complete control
[21] = Preemergence, 250 g ai/ha, visual, scale 0 no effect to 100 complete control
[22] = 62 g ai/ha, scale 0 to 100 (0 no effect, 100 complete control)
[23] = 125 g ai/ha, scale 0 to 100 (0 no effect, 100 complete control)
[24] = 31 g ai/ha, scale 0 to 100, 0 no effect, 100 complete control
[25] = 250 g ai/ha, visual, scale 0 no effect to 100 complete control

`Cc1ccc2sc(Br)c(-c3c(O)c(C)nn(C)c3=O)c2c1` [Compound 79] was tested, and the “Plant response rating, Arrowleaf Sida” value [1, 14] was 50, the “Plant response rating, Arrowleaf Sida” value [1, 15] was 80 and the “Plant response rating, Arrowleaf Sida” value [1, 16] was 60. For the same compound, the “Plant response rating, Arrowleaf Sida” value [1, 17] was 75, the “Plant response rating, Arrowleaf Sida” value [1, 18] was 70 and the “Plant response rating, Arrowleaf Sida” value [1, 19] was 50. For the same compound, the “Plant response rating, Arrowleaf Sida” value [1, 20] was 75, the “Plant response rating, Arrowleaf Sida” value [1, 21] was 75 and the “Plant response rating, Foxtail, Green” value [2, 22] was 70. For the same compound, the “Plant response rating, Foxtail, Green” value [2, 23] was 80, the “Plant response rating, Foxtail, Green” value [2, 24] was 55 and the “Plant response rating, Foxtail, Green” value [2, 25] was 90. The “Plant response rating, Corn” value (corn (Zea mays); [14]) was 0, the “Plant response rating, Corn” value (corn (Zea mays); [15]) was 0 and the “Plant response rating, Corn” value (corn (Zea mays); [16]) was 0. For the same compound, the “Plant response rating, Corn” value (corn (Zea mays); [17]) was 0, the “Plant response rating, Corn” value (corn (Zea mays); [18]) was 0 and the “Plant response rating, Corn” value (corn (Zea mays); [19]) was 0. For the same compound, the “Plant response rating, Corn” value (corn (Zea mays); [20]) was 0, the “Plant response rating, Corn” value (corn (Zea mays); [21]) was 20 and the “Plant response rating, Morningglory” value [3, 22] was 85. For the same compound, the “Plant response rating, Morningglory” value [3, 23] was 90, the “Plant response rating, Morningglory” value [3, 24] was 60 and the “Plant response rating, Morningglory” value [3, 25] was 100. The “Plant response rating, Dayflower, VA” value [4, 14] was 50, the “Plant response rating, Dayflower, VA” value [4, 15] was 70 and the “Plant response rating, Dayflower, VA” value [4, 16] was 60. For the same compound, the “Plant response rating, Dayflower, VA” value [4, 17] was 65, the “Plant response rating, Dayflower, VA” value [4, 18] was 65 and the “Plant response rating, Dayflower, VA” value [4, 19] was 50. The “Plant response rating, Dayflower, VA” value [4, 20] was 50, the “Plant response rating, Dayflower, VA” value [4, 21] was 70 and the “Plant response rating, Crabgrass, Brazil” value [5, 14] was 20. The “Plant response rating, Crabgrass, Brazil” value [5, 15] was 30, the “Plant response rating, Crabgrass, Brazil” value [5, 16] was 25 and the “Plant response rating, Crabgrass, Brazil” value [5, 17] was 80. For the same compound, the “Plant response rating, Crabgrass, Brazil” value [5, 18] was 40, the “Plant response rating, Crabgrass, Brazil” value [5, 19] was 20 and the “Plant response rating, Crabgrass, Brazil” value [5, 21] was 100. For the same compound, the “Plant response rating, Panicum, Fall” value [6, 14] was 60, the “Plant response rating, Panicum, Fall” value [6, 15] was 70 and the “Plant response rating, Panicum, Fall” value [6, 16] was 60. For the same compound, the “Plant response rating, Panicum, Fall” value [6, 17] was 80, the “Plant response rating, Panicum, Fall” value [6, 18] was 75 and the “Plant response rating, Panicum, Fall” value [6, 19] was 55. For the same compound, the “Plant response rating, Panicum, Fall” value [6, 20] was 80, the “Plant response rating, Panicum, Fall” value [6, 21] was 90 and the “Plant response rating, Barnyardgrass” value [7, 14] was 15. For the same compound, the “Plant response rating, Barnyardgrass” value [7, 15] was 30, the “Plant response rating, Barnyardgrass” value [7, 16] was 20 and the “Plant response rating, Barnyardgrass” value [7, 17] was 40. The “Plant response rating, Barnyardgrass” value [7, 18] was 20, the “Plant response rating, Barnyardgrass” value [7, 19] was 15 and the “Plant response rating, Barnyardgrass” value [7, 20] was 30. For the same compound, the “Plant response rating, Barnyardgrass” value [7, 21] was 50, the “Plant response rating, Goosegrass” value [8, 22] was 60 and the “Plant response rating, Goosegrass” value [8, 23] was 60. For the same compound, the “Plant response rating, Goosegrass” value [8, 24] was 50, the “Plant response rating, Goosegrass” value [8, 25] was 65 and the “Plant response rating, Soybean” value (soybean (Glycine max); [14]) was 10. The “Plant response rating, Soybean” value (soybean (Glycine max); [15]) was 50, the “Plant response rating, Soybean” value (soybean (Glycine max); [16]) was 15 and the “Plant response rating, Soybean” value (soybean (Glycine max); [17]) was 40. The “Plant response rating, Soybean” value (soybean (Glycine max); [18]) was 10, the “Plant response rating, Soybean” value (soybean (Glycine max); [19]) was 0 and the “Plant response rating, Soybean” value (soybean (Glycine max); [20]) was 40. The “Plant response rating, Soybean” value (soybean (Glycine max); [21]) was 50, the “Plant response rating, Nutsedge, Yellow” value [9, 22] was 60 and the “Plant response rating, Nutsedge, Yellow” value [9, 23] was 65. The “Plant response rating, Nutsedge, Yellow” value [9, 24] was 50, the “Plant response rating, Nutsedge, Yellow” value [9, 25] was 75 and the “Plant response rating, Ragweed” value [10, 14] was 98. For the same compound, the “Plant response rating, Ragweed” value [10, 15] was 100, the “Plant response rating, Ragweed” value [10, 16] was 95 and the “Plant response rating, Ragweed” value [10, 17] was 100. For the same compound, the “Plant response rating, Ragweed” value [10, 18] was 100, the “Plant response rating, Ragweed” value [10, 19] was 90 and the “Plant response rating, Ragweed” value [10, 20] was 100. The “Plant response rating, Ragweed” value [10, 21] was 100, the “Plant response rating, Horseweed” value [11, 14] was 95 and the “Plant response rating, Horseweed” value [11, 15] was 100. For the same compound, the “Plant response rating, Horseweed” value [11, 16] was 95, the “Plant response rating, Horseweed” value [11, 17] was 100 and the “Plant response rating, Horseweed” value [11, 18] was 90. For the same compound, the “Plant response rating, Horseweed” value [11, 19] was 90, the “Plant response rating, Horseweed” value [11, 20] was 100 and the “Plant response rating, Horseweed” value [11, 21] was 100. The “Plant response rating, Ryegrass, Italian” value [12, 14] was 40, the “Plant response rating, Ryegrass, Italian” value [12, 15] was 80 and the “Plant response rating, Ryegrass, Italian” value [12, 16] was 70. The “Plant response rating, Ryegrass, Italian” value [12, 17] was 100, the “Plant response rating, Ryegrass, Italian” value [12, 18] was 80 and the “Plant response rating, Ryegrass, Italian” value [12, 19] was 30. The “Plant response rating, Ryegrass, Italian” value [12, 20] was 75, the “Plant response rating, Ryegrass, Italian” value [12, 21] was 100 and the “Plant response rating, Sandbur” value [13, 14] was 30. The “Plant response rating, Sandbur” value [13, 15] was 70, the “Plant response rating, Sandbur” value [13, 16] was 50 and the “Plant response rating, Sandbur” value [13, 17] was 80. For the same compound, the “Plant response rating, Sandbur” value [13, 18] was 65, the “Plant response rating, Sandbur” value [13, 19] was 20 and the “Plant response rating, Sandbur” value [13, 20] was 60. For the same compound, the “Plant response rating, Sandbur” value [13, 21] was 75.

— patent US10597388B2, “Pyridazinone herbicides” (FMC CORPORATION, priority 2014, dated 2020)
